Assay results as given in article PMC7034072, “Discovery of small molecule inhibitors of Leishmania braziliensis Hsp90 chaperone” (Journal of Enzyme Inhibition and Medicinal Chemistry, 2020).
Where two headings read alike, the source gives them in different places.

Legend:
[1] = target: T1, LbHsp90 (Leishmania braziliensis, UniProt A4HL70); experiment: ATPase activity inhibition assay (EnzChek Pi quantification); assay type: biochemical
Protocol: (§1) The ATPase activity of LbHsp90 and hHsp90β was evaluated spectrophotometrically through inorganic phosphate (Pi) quantification following ATP hydrolysis, by the EnzChek™ assay kit (Invitrogen®) as previous described[31]^,[34]. Briefly, a 2 µM solution of LbHsp90 and hHsp90β enzymes was prepared in 150 mM NaCl, 5 mM MgCl2 and 20 mM Tris-HCl, pH 7.5, and incubated with ATP (concentration range 0–5 mM) for 60 min at 37 °C. Then, the chromogenic substrate 2-amino-6-mercapto 7-methyl purine riboside (MESG) and the purine nucleoside phosphorylase (PNP) were added and the resulting reaction mixture was incubated for 30 min at 37 °C. The assays were performed in a 96-well plate and kinetic parameters determined by Michaelis–Menten fitting using GraphPad Prism 6 software.
The inhibitory activity against LbHsp90 and hHsp90β of compounds showing interaction in DSF assays (namely Glb08, Glb15, Gl23, Glb25 and Glb27) was determined using spectrophotometric ATPase activity assays as described above. Initial screenings were performed using 50 μM compound concentration in a reaction mixture consisting of 2 μM enzyme and 2.5 mM ATP. After 1 h incubation at 37 °C, MESG and PNP were added. The amount of Pi was estimated after 30 min incubation at 37 °C. GA was used as reference compound, reporting 100% ATPase activity inhibition (at 50 μM). […] A compound concentration ranging from 1 to 75 μM was included in the reaction mixture and Pi quantification performed as previously described (measurements were performed in triplicate). IC50 values were determined by non-linear regression data fitting (using GraphPad Prism 6 software).

[2] = tested on: promastigote forms of L. braziliensis; experiment: In vitro IC50 determination (leishmanicidal activity, MTT/PMS); assay type: cell-based; settings: promastigotes, 72 h, RT
Protocol: Amphotericin 100 μM/well and 0.5% DMSO were used as positive and negative control, respectively. The plates were incubated at RT for 72 h. After this, the viability of the promastigotes was verified by MTT/PMS colorimetric assay, as described above. In vitro leishmanicidal activity, expressed as IC50, was determined using GraphPad Prism 5 software according to the following equation: (2) y= Amin + Amax−Amin/1+10^logIC50 −x*Hillslope where Amin and Amax are, respectively, the minimum and maximum activities obtained, x is the ligand concentration and Hill Slope is the parameter that describes the steepness of the curve.
The selectivity index parameter was obtained by the ratio of compound IC50 against mammalian cells and compound IC50 against promastigote cells.

[3] = tested on: Balb-c 3T3 clone A31 mouse fibroblasts; experiment: Cytotoxic assay (MTT); assay type: cell-based; settings: Balb-c 3T3 mouse fibroblasts, 72 h, 37 °C
Protocol: Compounds cytotoxicity was evaluated in 100 μL of Balb-c 3T3 cone A31 mouse fibroblasts (10^5 cells/mL) into a 96-well plate, incubated for 24 h at 37 °C to become adhered. After this period, the medium was washed and 100 μL of each compound was added to the culture medium (concentration ranging from 1 to 200 μM/well, with a total of 0.5% DMSO) in quadruplicate. Rapamycin was used as a positive control, and 0.5% DMSO was used as negative control. The plates were incubated for 72 h at 37 °C. After this, the viability of Balb-c 3T3 cells was evaluated by MTT colorimetric assay, as described previously.

[4] = target: T2, hHsp90β (Homo sapiens, UniProt P08238); experiment: ATPase activity inhibition assay (EnzChek Pi quantification); assay type: biochemical; settings: 50 μM compound, 2 μM enzyme, 2.5 mM ATP
T2 construct: made in house; host or cells: Escherichia coli BL21(DE3)
Protocol: as §1
Initial screenings were performed using 50 μM compound concentration in a reaction mixture consisting of 2 μM enzyme and 2.5 mM ATP. After 1 h incubation at 37 °C, MESG and PNP were added. The amount of Pi was estimated after 30 min incubation at 37 °C. […] A compound concentration ranging from 1 to 75 μM was included in the reaction mixture and Pi quantification performed as previously described (measurements were performed in triplicate). IC50 values were determined by non-linear regression data fitting (using GraphPad Prism 6 software).

[5] = tested on: LbHsp90 and LbHsp90N recombinant proteins; experiment: Differential scanning fluorimetry (thermal shift assay); assay type: binding, L. braziliensis; settings: DSF; for Thermal shift: inclusion criterion Tm variation greater or equal to ± 2 °C in LbHsp90 or LbHsp90N, Yes/No
Protocol: The interaction of Hsp90 proteins with different compounds was monitored through the melting temperature (Tm) of each protein in the presence of a fixed concentration of the target compound by differential scanning fluorimetry (DSF) also referred as thermal shift assay. A final concentration of 10 µM of dimeric LbHsp90 and 20 µM of monomeric LbHsp90N in 40 mM Hepes buffer (pH 7.5) containing 100 mM KCl were used. The DMSO concentration in each sample was fixed at 2.5% (v/v). Prior to the readings, the samples were incubated for 30 min on ice. The fluorophore Sypro Orange (Life Technologies) was used as fluorescent probe. The experiments were performed at a thermocycler CFX96 Touch Real Time PCR Detection System (BioRad) and the data were analysed using the CFX Manager software (BioRad). As positive controls, 100 µM of GA and Radicicol (RDC) were used.

[6] = target: LbHsp90N; experiment: Tryptophan fluorescence quenching interaction assay; assay type: binding, L. braziliensis; settings: N-terminal domain, read-out: KDapp LbHsp90N
Protocol: (§2) Two µM of protein in 40 mM Hepes buffer (pH 7.5), 100 mM KCl, was incubated for 30 min on ice with increasing concentrations of the compounds diluted in DMSO. […] The samples were excited at 280 nm and the emission was collected in the 300–400 nm range, in a 1.0 × 0.2 cm optical path cuvette, on an F-4500 Fluorescence Spectrophotometer (Hitachi). The fluorescence quenching was analysed at the maximum emission wavelength in the absence of ligand. The determination of the apparent dissociation constant (KDapp) was performed by fitting the fluorescence values obtained for each compound concentration according to a dose-response model through the Equation (3): (3) y = Fmin + (Fmax−Fmin)/(1+10^(logKD− [ligand])) where Fmin and Fmax are the minimum and maximum fluorescence intensity and [ligand] is the compound concentration used in the assay, according to the GraphPad Prism 5 software. The fluorescence intensities were corrected by inner filter effects as previously described.

[7] = target: T2, hHsp90β; experiment: as above; assay type: binding; settings: full-length, tryptophan fluorescence quenching; read-out: KDapp hHsp90β
Protocol: as §2

[8] = target: T1, LbHsp90; experiment: as above; assay type: binding; settings: full-length, tryptophan fluorescence quenching; read-out: KDapp LbHsp90
Protocol: as §2

[9] = target: T3, hHsp90βN (Homo sapiens, UniProt P08238); experiment: as above; assay type: binding; settings: N-terminal domain, read-out: KDapp hHsp90βN
T3 construct: N-terminal domain construct (Hsp90βN – residues 1–223); His-tag (cleaved yes); made in house; host or cells: Escherichia coli BL21(DE3)
Protocol: as §2

[10] = tested on: promastigote form of L. braziliensis; experiment: Cell viability assay (MTT/PMS), single concentration; assay type: cell-based; settings: L. braziliensis promastigotes, 200 μM/well; for Cell viability: 72 h, MTT/PMS, Yes = leishmanicidal activity; for reduced cell viability: after 72 h
Protocol: The leishmanicidal activity of the compounds was tested in vitro against the promastigote form of L. braziliensis applying 200 μM/well, (with a total of 0.5% DMSO) into 90 μL of culture. The concentration of L. braziliensis (MHOM/BR/1973/M2269) was adjusted to 10^7 cells/mL. Amphotericin (100 μM/well) was used as positive control, and 0.5% DMSO as negative control.
The plates were incubated at room temperature (RT) for 72 h. After this period, the viability of the promastigotes was verified via MTT (3–(4, 5-Dimethylthiazol-2-yl)-2, 5-Diphenyltetrazolium Bromide) colorimetric assay. MTT/PMS 11.1 μL/well solution (MTT = 5 mg/mL; Phenazine methosulfate-PMS = 0.22 mg/mL) was added, and the plate was incubated at RT for 4 h, at 150 RPM, protected from light. Formazan crystals were then solubilised by adding 100 μL/well of a solubilisation solution containing 7% SDS, 10 mM HCl and 30% DMSO. The mixture was incubated at RT for 90 min at 150 RPM protected from light. Wells containing the medium and the compounds or DMSO without MTT were used as blank controls. The absorbance was quantified in a plate reader (Biotek Synergy HT) at 570 nm.
The cell viability percentages were calculated by the following equation: (1) Cell viability %= AT−AB/AU−AB ×100 where AT was an averaged absorbance from treated samples, AB blank absorbance and AU was an averaged absorbance from negative control.

[11] = target: LbHsp90N; set-up: method as in PMID 22910377; settings: measured by Tryptophan fluorescence quenching ref 31; read-out: KDapp LbHsp90N; cited from earlier work
[12] = target: T1, LbHsp90; set-up: method as in PMID 22910377; settings: measured by Tryptophan fluorescence quenching ref 31; read-out: KDapp LbHsp90; cited from earlier work
[13] = tested on: L. amazonensis; set-up: method as in PMID 31611575; settings: determined against L. amazonensis ref 36; read-out: IC50 (L. braziliensis column); cited from earlier work
[14] = compound 1 to 75 μM, triplicate, read-out: IC50 LbHsp90 ATPase activity inhibition

T3 sequence (P08238 1-223): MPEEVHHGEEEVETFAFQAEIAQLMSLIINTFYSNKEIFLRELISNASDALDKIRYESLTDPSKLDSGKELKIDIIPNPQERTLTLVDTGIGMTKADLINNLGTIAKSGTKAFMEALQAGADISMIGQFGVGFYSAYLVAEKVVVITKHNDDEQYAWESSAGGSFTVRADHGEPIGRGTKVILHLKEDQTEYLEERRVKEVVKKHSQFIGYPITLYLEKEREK
T1 sequence (A4HL70 entry or part of it): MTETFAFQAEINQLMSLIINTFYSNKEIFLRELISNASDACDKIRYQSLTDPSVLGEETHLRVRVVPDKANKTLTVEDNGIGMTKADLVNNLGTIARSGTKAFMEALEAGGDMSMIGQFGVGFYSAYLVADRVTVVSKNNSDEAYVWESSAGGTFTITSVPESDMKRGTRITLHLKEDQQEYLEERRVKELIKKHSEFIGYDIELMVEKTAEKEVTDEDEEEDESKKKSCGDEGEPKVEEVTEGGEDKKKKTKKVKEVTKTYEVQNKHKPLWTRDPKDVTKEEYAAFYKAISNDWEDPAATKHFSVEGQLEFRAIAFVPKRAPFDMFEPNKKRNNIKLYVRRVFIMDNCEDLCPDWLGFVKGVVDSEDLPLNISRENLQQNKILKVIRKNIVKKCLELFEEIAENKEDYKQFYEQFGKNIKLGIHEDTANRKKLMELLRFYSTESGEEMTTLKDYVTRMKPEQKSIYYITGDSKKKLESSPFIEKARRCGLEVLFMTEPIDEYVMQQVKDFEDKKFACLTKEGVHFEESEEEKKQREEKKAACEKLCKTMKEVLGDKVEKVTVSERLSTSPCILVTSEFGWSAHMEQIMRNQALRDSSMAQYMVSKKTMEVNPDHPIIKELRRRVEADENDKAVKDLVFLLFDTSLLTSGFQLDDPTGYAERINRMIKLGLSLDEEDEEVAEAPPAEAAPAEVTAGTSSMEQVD
T2 sequence (P08238 whole entry): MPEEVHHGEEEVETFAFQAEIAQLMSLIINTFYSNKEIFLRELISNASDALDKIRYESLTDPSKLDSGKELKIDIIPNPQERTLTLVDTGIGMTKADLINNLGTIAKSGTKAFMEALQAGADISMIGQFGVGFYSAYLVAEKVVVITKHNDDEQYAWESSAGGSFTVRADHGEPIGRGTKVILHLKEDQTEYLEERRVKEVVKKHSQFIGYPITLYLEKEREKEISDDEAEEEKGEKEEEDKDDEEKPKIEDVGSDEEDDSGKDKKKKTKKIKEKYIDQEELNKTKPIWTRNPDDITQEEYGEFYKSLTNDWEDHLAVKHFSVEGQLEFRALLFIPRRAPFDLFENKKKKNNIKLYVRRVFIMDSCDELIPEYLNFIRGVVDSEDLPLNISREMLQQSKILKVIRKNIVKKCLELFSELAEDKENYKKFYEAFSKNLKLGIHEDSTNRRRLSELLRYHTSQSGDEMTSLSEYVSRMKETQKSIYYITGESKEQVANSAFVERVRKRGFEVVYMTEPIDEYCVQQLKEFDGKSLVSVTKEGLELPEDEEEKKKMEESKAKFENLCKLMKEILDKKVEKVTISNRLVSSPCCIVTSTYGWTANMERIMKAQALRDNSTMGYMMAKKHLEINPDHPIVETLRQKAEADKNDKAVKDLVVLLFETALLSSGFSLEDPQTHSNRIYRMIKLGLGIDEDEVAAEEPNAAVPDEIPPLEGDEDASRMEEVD

| Structure (SMILES) | IC50 [1, 14] [µM] | IC50 [2] [µM] | IC50 [3] [µM] | percentage inhibition of hHsp90β ATPase activity [4] | Thermal shift [5] | Kd [6] [µM] | Kd [7] [µM] | Kd [8] [µM] | Kd [9] [µM] | Cell viability [10] | reduced cell viability [10] | Kd [11] [µM] | IC50 [1] [µM] | inhibition at 50 µM ([1]; read-out: percentage inhibition of LbHsp90 ATPase activity) [%] | Kd [12] [µM] | ΔTm ([5]; 100 µM positive controls, protein stabilisation) [°C] | IC50 [13] [µM] |
| --- | --- | --- | --- | --- | --- | --- | --- | --- | --- | --- | --- | --- | --- | --- | --- | --- | --- |
| N=C(N)Nc1nc(-c2ccccc2)c2ccccc2n1 [Glb08] | 30 ± 1 | 43 ± 2 | 75 ± 3 | lower than 60% | positive outcomes and Yes | 17 ± 6 | 20 ± 5 | 13 ± 4 | 29 ± 3 | Yes | more than 60% |  |  |  |  |  |  |
| Cc1cc(CSC(=N)N)c2oc(-c3ccccc3)cc(=O)c2c1 [Glb25] |  | > 200 | 11 ± 1 | lower than 60% | positive outcomes and Yes | 12 ± 2 | 15 ± 9 | 7 ± 3 | 14 ± 3 | Yes | more than 60% |  |  |  |  |  |  |
| N=C(N)NN=Cc1cnn(Cc2ccccc2)c1 [Glb15] | 36 ± 1 | 71 ± 2 | > 200 | lower than 60% | No | 13 ± 3 | 14 ± 6 | 14 ± 4 | 12 ± 3 | Yes | more than 60% |  |  |  |  |  |  |
| COC1=C2C[C@@H](C)C[C@H](OC)[C@H](O)[C@@H](C)/C=C(\C)[C@H](OC(N)=O)[C@@H](OC)/C=C\C=C(/C)C(=O)NC(=CC1=O)C2=O [GA, geldanamycin, reference compound] |  |  |  | fully inhibits enzyme activity |  |  |  |  |  | Yes |  | 1.8 ± 0.3 | 9 | 100 | 7.6 ± 0.2 | > 2.0 | 0.19 |
